The nature of data set [1]: Example 1: growth and feed efficiency of broiler cockerels fed thyroid-active substances with or without daily ncGH injection. The format is in vivo, broiler cockerels (Ross X Arbor Acre strain). The note with it: for BW (body weight): mean ±SEM; for ADFC (average daily feed consumption) / ADG (average daily weight gain) / FTG (feed-to-gain ratio): 21 days. The source says: (§1) The purpose of this study was to determine the effect manipulating blood levels of thyroid hormones and/or growth hormone on growth performance and body composition of broiler chickens. […] Purified natural chicken growth hormone (ncGH) was obtained from the Research and Education Center, Harbor-UCLA Medical Center, Torrance, Calif. […] The premix (200 g) was then used to prepare 50 kg batches of each experimental diet according to the formula for broiler-finisher ration described in Table 1. The diet containing 0.5% PTU was prepared by mixing 250 g of PTU into 49.75 kg of the basal ration (Table 1).
(§2) Broiler cockerels (Ross X Arbor Acre strain) were raised to 3 weeks-of-age in a battery-brooder and then transferred to wire grow-out cages (4 birds/pen) held in two controlled-environment rooms (10 pens/room). Beginning at 3 weeks of age, eight birds (2 pens of 4 birds) were randomly assigned to each of 10 treatments. The chickens were provided the experimental diets and water ad libitum. […] For injection, the ncGH was reconstituted in sterile 0.025M sodium bicarbonate buffer (pH 9.8). The 10 treatments were administered for 21 days (i.e., from 3 to 6 weeks of age).
(§3) Measurement of body weight and feed consumption at weekly intervals allowed calculation of the average daily gain (ADG, g/bird/day), average daily feed consumption (ADFC, g/bird/day) and the feed-to-gain ratio (FIG, kg feed/kg gain) over the 21 day experimental period. Blood samples were taken each week (4, 5, and 6 weeks) just before (pre-injection) and 4 hours post-injection of ncGH. […] At the conclusion of the study, birds were killed and the carcasses frozen for proximate analysis. The frozen carcasses were ground in a meat grinder and aliquots of each ground carcass taken for determination of moisture, protein, fat and ash by established analytical procedures (Official Method of Analysis, Edition 13, W. Horwitz ed., Association of Official Analytical Chemist, Washington, D.C., 1980). Body composition data are presented as a percent of live weight at 6 weeks-of-age. Least squares regression analysis was used to test for significant differences (P<0.05) due treatment.

A short description of data set [2]: Example 1: body composition (proximate analysis of carcass). In kind it is in vivo, broiler cockerels (Ross X Arbor Acre strain). The conditions noted are these: for Body composition: Ash / Body composition: Fat / Body composition: Protein / Body composition: Water: N = 8.
Excerpt: as §1, §2, §3

The nature of data set [3]: Example 1: plasma hormone concentrations (radioimmunoassays). The conditions noted are these: for average plasma T3 level: Group 1; for plasma Glucagon (G) / plasma Insulin (I) / I/G Molar Ratio: N = 24.
Excerpt: as §1, §2, §3

For data set [4] the following is noted: supplemented diets; cited from earlier work.
The next data set has as its system receptor. The conditions noted are these: cited from earlier work.
For data set [5] the following is noted: at the doses tested. The source says:
Referring now to broiler chickens as a benchmark for the beneficial effects of this invention, it must be noted that these chickens grow from a weight of 30 to 50 grams at hatching to about 1.5-3 or even as much as 5 kilograms of body weight at market age. Of this market weight, 15-20 wt.-% is protein, 2-3 wt.-% is inorganic (showing up as ash in proximate analysis of body composition), and more than 10 wt.-% (e.g. 10-20 wt.-%) is fat, which means that the protein:fat ratio (by weight) is likely to be at or below 1.5:1 and certainly well below 2:1.

The conditions of data set [6]: i.v., 21 days, cited from earlier work; for growth rate and feed efficiency: TRH 1 or 10 μg/kg/day, GRF 10 μg/kg/day, alone or in combination.
Data set [7] is described as follows: Example 2: growth and feed efficiency, dietary T3 and ncGH injection. In kind it is in vivo, broiler cockerels (Ross X Arbor Acre). How it is done: (§4) Forty-eight 3-week-old broiler cockerels (Ross X Arbor Acre) were randomly divided into four treatment groups that contained three pens of four birds. The birds were housed in a controlled-environment room under a 20 hour light/4 hour dark cycle with feed and water provided ad libitum.
(§5) The preparation of ncGH used in this study was from the same lot used in Example 1.
(§6) Body weights and feed consumption was determined at weekly intervals although the ADG, ADFC and FTG ratio was determined over the 21 day period. […] At the conclusion of the study (6 weeks-of-age), birds were killed and the abdominal fat removed and weighed. The liver and abdominal fat were returned to the carcass which was frozen for proximate analysis as described in […]

Data set [8] is described as follows: Example 2: final body weight, liver, abdominal fat and body composition. The format is in vivo, broiler cockerels (Ross X Arbor Acre). How it is done:
as §4, §5, §6

The nature of data set [9]: Example 2: plasma hormone concentrations. The note with it: 4 hours post-injection of 100 μg ncGH/kg BW at 4, 5 and 6 weeks. The format is in vivo, broiler cockerels (Ross X Arbor Acre). How it is done:
as §4, §5, §6

For data set [10] the following is noted: injection, finishing pigs; cited from earlier work.
Setting [11] is: 1 ppm T3, 1 ppm T4, 5 ppm TRH or 0.5% PTU in feed, 3 to 6 weeks of age, Group 1.
The mark [12] stands for this setting: Group 1, dietary, 6 weeks-of-age.
[13] abbreviates: Group 2, with daily ncGH injection.
[14] abbreviates: 1 ppm T3 and/or ncGH 100 μg/kg/day, 21 days.

No end group written: not given here.

With `N[C@@H](Cc1cc(I)c(Oc2cc(I)c(O)c(I)c2)c(I)c1)C(=O)O` [T4, 3-[4-(4-hydroxy-3,5-diiodophenoxy)-3,5-diiodophenyl]-L-alanine], the “BW (body weight)” value in [1] (setting [11]) is on record as 1.76 ± .04 kg. In addition, in data set [1] (Group 1, dietary), the “ADFC (average daily feed consumption)” value worked out at 108.4 ± 3.6 g/bird/day and the “ADG (average daily weight gain)” value is 51.9 ± 3.3 g/bird/day. Moreover, in [2] (setting [12]), the “Body composition: Ash” value is recorded as 2.35 ± .03 % BW, the “Body composition: Fat” value is 12.9 ± .41 % BW, the “Body composition: Protein” value was 18.2 ± .31 % BW and the “Body composition: Water” value was 65.8 ± .29 % BW. The “average plasma T3 level” value in data set [3] was 3 ng/mL. Further, in data set [3] (Group 1, dietary), the “plasma Glucagon (G)” value was determined as 318 pg/mL and the “plasma Insulin (I)” value was 776 pg/mL. Besides, in data set [4], the “depressed growth rate in dwarf strains” value is reported as “restored to normal”. For the same molecule, in the data set on receptor, the “metabolic activity of thyroid hormones” value was “without significant metabolic activity”.
Take `NC(=O)[C@@H]1CCCN1C(=O)[C@H](Cc1c[nH]cn1)NC(=O)[C@@H]1CCC(=O)N1` [TRH, L-pyroglutamyl-L-histidyl-L-prolinamide]: the “BW (body weight)” value in [1] (setting [11]) was 1.85 ± .08 kg. In addition, in data set [1] (Group 1, dietary), the “ADFC (average daily feed consumption)” value was 125.2 ± 5.5 g/bird/day, the “ADG (average daily weight gain)” value is recorded as 56.5 ± 0.2 g/bird/day and the “FTG (feed-to-gain ratio)” value stood at 2.21 ± 0.1 kg feed/kg gain. Besides, in data set [1] (vs CF group, not significant), the “ADFC rate, increase” value is 11%; the “ADG, increase” value was 9%; the “body weight (BW), increase” value turned out to be 6%. In [2] (setting [12]), the “Body composition: Ash” value is on record as 2.34 ± .06 % BW, the “Body composition: Fat” value is 13.6 ± .88 % BW, the “Body composition: Protein” value was 18.1 ± .21 % BW and the “Body composition: Water” value was 65.5 ± .73 % BW. Also, in data set [2] (vs CF group), the “body fat content, increase” value is recorded as 12%. The “average plasma T3 level” value in [3] is 3 ng/mL. Moreover, in data set [3] (Group 1, dietary), the “I/G Molar Ratio” value is 1.68, the “plasma Glucagon (G)” value is 295 pg/mL and the “plasma Insulin (I)” value amounted to 814 pg/mL. In addition, in [5], the “effect on protein:fat ratio” value is “seemed to decrease the protein:fat ratio”. For the same molecule, in [6], the “plasma GH levels” value is given as “elevated plasma GH levels”; the “growth rate and feed efficiency” value was “failed to stimulate growth rate or improve feed efficiency”.
On to `O=C(O)Cc1cc(I)c(Oc2cc(I)c(O)c(I)c2)c(I)c1` [Tetrac], for which, in the data set on receptor, the “metabolic activity of thyroid hormones” value is “most active compounds of formula I”.
Turning to `O=C(O)Cc1cc(I)c(Oc2ccc(O)c(I)c2)c(I)c1` [Triac], the “metabolic activity of thyroid hormones” value in the data set on receptor is reported as “most active compounds of formula I”.
On to “GRF: GH-releasing factor; human GRF is a 44 amino acid polypeptide hormone (YADAIFTNSYRKVLGQLSARKLLQDIMSRQQGESNQERGARARL-NH2; ends and bridges not checked; UniProt P01286 32-75, looked up)”, for which, in data set [6], the “plasma GH levels” value is “elevated plasma GH levels”; the “growth rate and feed efficiency” value was “failed to stimulate growth rate or improve feed efficiency”.

B1: GH: Purified natural chicken growth hormone (ncGH) (protein, UniProt P08998 26-216, looked up)
Somatotropin: TFPAMPLSNLFANAVLRAQHLHLLAAETYKEFERTYIPEDQRYTNKNSQAAFCYSETIPAPTGKDDAQQKSDMELLRFSLVLIQSWLTPVQYLSKVFTNNLVFGTSDRVFEKLKDLEEGIQALMRELEDRSPRGPQLLRPTYDKFDIHLRNEDALLKNYGLLSCFKKDLHKVETYLKVMKCRRFGESNCTI
On to B1, for which, in data set [1] (setting [13]), the “ADFC (average daily feed consumption)” value is 115.8 ± 1.8 g/bird/day, the “ADG (average daily weight gain)” value stood at 57.0 ± 0.4 g/bird/day and the “FTG (feed-to-gain ratio)” value is 2.03 ± .02 kg feed/kg gain. Also, the “BW (body weight)” value in data set [1] (Group 2: daily i.m. 100 ug ncGH/kg with CF, 1 ppm T3, 1 ppm T4 or 5 ppm TRH in feed, 3 to 6 weeks) is reported as 1.83 ± .04 kg. Moreover, the “feed efficiency, improvement” value in [1] (vs FTG ratio of CF+BI group (P<0.05)) is listed as 9%. In addition, in data set [2] (setting [13]), the “Body composition: Ash” value is given as 2.20 ± .04 % BW, the “Body composition: Fat” value is recorded as 14.5 ± .52 % BW, the “Body composition: Protein” value is on record as 18.1 ± .15 % BW and the “Body composition: Water” value is 64.7 ± .51 % BW. In [3] (4 hours post-injection of 100 μg ncGH/kg BW, Group 2), the “average plasma GH concentration” value stood at 62 ng/mL. Also, the “average plasma GH concentration, fold over pre-injection” value in [3] (4 hours post-injection of 100 μg ncGH/kg BW, Group 2 (P<0.05)) came to 3 times. Besides, in data set [3] (setting [13]), the “I/G Molar Ratio” value is 2.28, the “plasma Glucagon (G)” value turned out to be 298 pg/mL and the “plasma Insulin (I)” value is 1107 pg/mL. Further, in [7] (setting [14]), the ADFC was 115.4 ± 3.5 g/bird/day and the FTG was 2.18 ± .05 kg feed/kg gain. The same molecule displayed an ADG in data set [7] (1 ppm T3 in feed and/or ncGH 100 μg/kg/day i.m., 3 to 6 weeks, mean ±SEM of 3 pens) of 53.0 ± 2.8 g/bird/day. For the same molecule, the “effect on ADG, ADFC and FTG ratio” value in [7] (21 days) was “not affected”. Moreover, the “Body Weight (BW), final” value in data set [8] (1 ppm T3 and/or ncGH 100 μg/kg/day, 6 weeks-of-age, N = 12) is recorded as 1.88 ± .051 kg. Besides, the “effect on final body weight, relative liver weight, abdominal fat” value in data set [8] (6 weeks-of-age) is “did not affect growth performance, final body weight, relative liver weight or abdominal fat content”. Further, in data set [8] (N = 12), the “Abdominal Fat, relative weight” value is reported as 2.56 ± .178 % BW; the “Body composition: Ash” value is recorded as 2.23 ± .058 % BW; the “Body composition: Fat” value is 15.9 ± .32 % BW; the “Body composition: Protein” value is reported as 17.0 ± .17 % BW. Also, in data set [8] (N = 12), the “Body composition: Water” value is on record as 63.7 ± .33 % BW and the “Liver, relative weight” value was 2.74 ± .102 % BW. Further, in data set [9], the “average plasma GH concentration, fold over pre-injection” value came out at 4 times. The “effect on protein:fat ratio” value in data set [5] was “seemed to decrease the protein:fat ratio”.

B2: pGH: purified porcine growth hormone (pGH) (protein, UniProt P01248 27-216, looked up)
Somatotropin: FPAMPLSSLFANAVLRAQHLHQLAADTYKEFERAYIPEGQRYSIQNAQAAFCFSETIPAPTGKDEAQQRSDVELLRFSLLLIQSWLGPVQFLSRVFTNSLVFGTSDRVYEKLKDLEEGIQALMRELEDGSPRAGQILKQTYDKFDTNLRSDDALLKNYGLLSCFKKDLHKAETYLRVMKCRRFVESSCAF
Take B2: in [10], the “carcass fat content, reduction” value is recorded as 18-25%; the “feed conversion, improvement” value is on record as 7-19%; the “growth rate, increase” value is given as 10-14%; the “muscle mass, increase” value was 24-36%.

The values above are taken from patent US5168102A, “Endocrine manipulation to improve body composition of poultry” (priority 1990, dated 1992).
